This note sets out measurements from patent publication US12612397B2, “Methods and compositions for modulating splicing” (Skyhawk Therapeutics, Inc., priority 2019, dated 2026).

One series has as its system SMN protein. The series can be described thus: SMN protein assay (MSD) in SMA patient fibroblasts (GM03813). Particulars: SMN protein by MSD, SMA patient fibroblasts GM03813, 48 hours. The series is classed as cell-based, human. On the procedure: Compounds were tested on spinal muscular atrophy (SMA) patient fibroblasts (GM03813, Coriell) at doses ranging from 2.5 μM to 0.6 nM. 7000 cells/well were seeded in 96-well plates. Compounds were incubated for 48 hours and the cells were lysed with 100 μL of lysis buffer. 20 μL of lysate was used for SMN protein measurement by Mesoscale Discovery (MSD) assay developed by PharmOptima (Michigan). A standard curve prepared with SMN protein ranging from 1 μg/ml to 19.5 pg/ml was used in each MSD plate to calculate the absolute SMN protein amount in each sample.

In another series the test system is MDR1. The series is described as follows: in vitro. Particulars: dog, MDCK-MDR1, pH 7.4.
For series [1], the system named is MDR1-MDCK cell monolayers. The note with it: dog, MDCK-MDR1, 120 min, 5 μM, pH 7.4.
Procedure: The permeability of compounds is assessed for BBB penetration potential by use of an MDCK-MDR1 assay (Catalog EA203) performed by Absorption Systems, Exton PA.
MDR1-MDCK cell monolayers are grown to confluence on collagen-coated, microporous membranes in 12-well assay plates. The permeability assay buffer is Hanks' balanced salt solution containing 10 mM HEPES and 15 mM glucose at a pH of 7.4. The buffer in the receiver chamber also contained 1% bovine serum albumin. The dosing solution concentration is 5 μM of test article in the assay buffer. Cell monolayers are dosed on the apical side (A-to-B) or basolateral side (B-to-A) and incubated at 37° C. with 5% CO2 in a humidified incubator. Samples are taken from the donor and receiver chambers at 120 minutes. Each determination is performed in duplicate. The flux of lucifer yellow is also measured post-experimentally for each monolayer to ensure no damage is inflicted to the cell monolayers during the flux period. All samples are assayed by LC-MS/MS using electrospray ionization.
Efflux ratio (ER) is defined as Papp (B-to-A)/Papp (A-to-B).
• Column: Waters ACQUITY UPLC BEH Phenyl 30×2.1 mm, 1.7 μm • M.P. Buffer: 25 mM ammonium formate buffer, pH 3.5 • Aqueous Reservoir (A): 90% water, 10% buffer • Organic Reservoir (B): 90% acetonitrile, 10% buffer • Flow Rate: 0.7 mL/minute Gradient Program:
• Total Run Time: 1.00 minute • Autosampler: 2 μL injection volume • Wash1: water/methanol/2-propanol:1/1/1; with 0.2% formic acid • Wash2: 0.1% formic acid in water
Another series has as its system SMN FL. The series is described as follows: Quantitative splicing assay (SMN) in SMA patient fibroblasts (GM03813). Format: cell-based. The note with it: Homo sapiens, Fibroblast; SMA patient fibroblasts GM03813, 24 h, qPCR. On the procedure:
Spinal muscular atrophy (SMA) patient fibroblasts (GM03813, Coriell) are plated in 96-well plates at 50,000 cells/well. Immediately after plating, cells are dosed with compounds for 24 h at concentrations ranging from 2.5 μM to 0.6 nM (0.1% DMSO). Treated cells are lysed and cDNA synthesized using the Fast Advanced Cells-to-Ct kit (Thermofisher A35378) according to the manufacturer's instructions. 2 μL of each cDNA are used in qPCR reactions. The qPCR reactions are prepared in 384-well plates in 10 μL volume, using TaqMan™ Fast Advanced Master Mix (ThermoFisher; 4444965) with primers and probes shown in the table below. Reactions are run in a Quant Studio 6 qPCR instrument with default settings.

The EC50 is the concentration that produces a half-maximal response. Higher therefore signals lower potency in that assay. As usually defined, the Papp A→B is how fast a substance crosses the layer from the apical side. Low values mean poor permeation, high ones ready permeation. Usually Papp B→A stands for the apparent permeability from the basolateral to the apical side of a cell layer. In general, efflux ratio refers to a quotient of directional permeabilities that is used to spot active efflux.

In the series with SMN protein, `CN(c1ncc(-c2ccc(-c3cn[nH]c3)cc2O)nn1)[C@@H]1C[C@H]2CC[C@H](N2)[C@@H]1F` (single isomer, unassigned) [Compound 1A] registered an EC50 of 16 to 50 nM. Moreover, in the series with MDR1, the Papp A→B at 120 min, 5 μM was 3.47 ×10⁻⁶ cm/s; the apparent permeability from basolateral to apical (Papp B→A) at 120 min, 5 μM came to 51.6 ×10⁻⁶ cm/s; the efflux ratio at 120 min, 5 μM came out at 15. In series [1], the “MDCK-MDR1: % Recov A-B” value came to 86% and the “MDCK-MDR1: % Recov B-A” value stood at 89%. In the series with SMN FL, the concentration for a half-maximal effect (EC50) is 0.01 to 15 nM.

In the case of `CN(c1ncc(-c2ccc(-c3cn[nH]c3)cc2O)nn1)[C@H]1C[C@@H]2CC[C@@H](N2)[C@H]1F` (single isomer, unassigned) [Compound 1B], the 50% effective concentration (EC50) in the series with SMN protein was 0.01 to 15 nM. In the series with MDR1, the apical-to-basolateral permeability (Papp A→B) at 120 min, 5 μM was 2.95 ×10⁻⁶ cm/s; the Papp B→A at 120 min, 5 μM worked out at 33.2 ×10⁻⁶ cm/s; the efflux ratio at 120 min, 5 μM was 11. In series [1], the “MDCK-MDR1: % Recov A-B” value worked out at 78% and the “MDCK-MDR1: % Recov B-A” value is given as 90%. Further, in the series with SMN FL, the EC50 lay in the range of 101 to 500 nM.

Turning to `CN(c1ncc(-c2ccc(-c3cnn(C)c3)cc2O)nn1)[C@@H]1C[C@H]2CCC[C@H](N2)[C@@H]1F` (single isomer, unassigned) [Compound 2A], the concentration giving a half-maximal response (EC50) in the series on SMN protein lay within 51 to 100 nM. Also, in the series with MDR1, the Papp A→B at 120 min, 5 μM turned out to be 4.48 ×10⁻⁶ cm/s; the apparent permeability from basolateral to apical (Papp B→A) at 120 min, 5 μM turned out to be 30.3 ×10⁻⁶ cm/s; the efflux ratio at 120 min, 5 μM turned out to be 7. In series [1], the “MDCK-MDR1: % Recov A-B” value turned out to be 81% and the “MDCK-MDR1: % Recov B-A” value is given as 84%.

`CN(c1ncc(-c2ccc(-c3cnn(C)c3)cc2O)nn1)[C@H]1C[C@@H]2CCC[C@@H](N2)[C@H]1F` (single isomer, unassigned) [Compound 2B] showed an EC50 in the series with SMN protein of 16 to 50 nM. In the series with MDR1, the Papp A→B at 120 min, 5 μM was determined as 6.89 ×10⁻⁶ cm/s; the Papp B→A at 120 min, 5 μM came out at 32.9 ×10⁻⁶ cm/s; the efflux ratio at 120 min, 5 μM amounted to 5. In series [1], the “MDCK-MDR1: % Recov A-B” value is recorded as 69% and the “MDCK-MDR1: % Recov B-A” value turned out to be 83%.

The compound `CN(c1ncc(-c2cc3ccncc3s2)nn1)[C@@H]1C[C@H]2CC[C@H](N2)[C@@H]1F` (single isomer, unassigned) [Compound 8A] showed an EC50 in the series with SMN protein of 501 to 10000 nM. Besides, in the series with MDR1, the Papp A→B at 120 min, 5 μM amounted to 13.5 ×10⁻⁶ cm/s; the Papp B→A at 120 min, 5 μM came to 37.3 ×10⁻⁶ cm/s; the efflux ratio at 120 min, 5 μM is 3. In series [1], the “MDCK-MDR1: % Recov A-B” value was found to be 87% and the “MDCK-MDR1: % Recov B-A” value is 93%.

Turning to `CN(c1ncc(-c2cc3ccncc3s2)nn1)[C@H]1C[C@@H]2CC[C@@H](N2)[C@H]1F` (single isomer, unassigned) [Compound 8B], in the series on SMN protein, the EC50 was 501 to 10000 nM. Moreover, in the series on MDR1, the Papp A→B at 120 min, 5 μM is 12.9 ×10⁻⁶ cm/s; the Papp B→A at 120 min, 5 μM was found to be 49.6 ×10⁻⁶ cm/s; the efflux ratio at 120 min, 5 μM was 4. Further, in series [1], the “MDCK-MDR1: % Recov A-B” value is reported as 79% and the “MDCK-MDR1: % Recov B-A” value worked out at 81%.

Take `CN(C)C(=O)c1cc2cc(O)c(-c3cnc(N(C)[C@@H]4C[C@H]5CC[C@H](N5)[C@@H]4F)nn3)cc2o1` (single isomer, unassigned) [Compound 9A]: in the series on MDR1, the apical-to-basolateral permeability (Papp A→B) at 120 min, 5 μM is 2.55 ×10⁻⁶ cm/s; the Papp B→A at 120 min, 5 μM is 61.2 ×10⁻⁶ cm/s; the efflux ratio at 120 min, 5 μM was found to be 24. For the same compound, in series [1], the “MDCK-MDR1: % Recov A-B” value was found to be 92% and the “MDCK-MDR1: % Recov B-A” value is listed as 100%.

`CN(C)C(=O)c1cc2cc(O)c(-c3cnc(N(C)[C@H]4C[C@@H]5CC[C@@H](N5)[C@H]4F)nn3)cc2o1` (single isomer, unassigned) [Compound 9B]: in the series on MDR1, the apparent permeability from apical to basolateral (Papp A→B) at 120 min, 5 μM was found to be 2.4 ×10⁻⁶ cm/s; the apparent permeability from basolateral to apical (Papp B→A) at 120 min, 5 μM turned out to be 58.5 ×10⁻⁶ cm/s; the efflux ratio at 120 min, 5 μM came to 24. Further, in series [1], the “MDCK-MDR1: % Recov A-B” value is recorded as 88% and the “MDCK-MDR1: % Recov B-A” value came to 97%.
